Results reported in patent publication US9650614B2, “Anaplastic lymphoma kinase (ALK) as oncoantigen for lymphoma vaccination” (priority 2007, dated 2017).
“Also recorded” adds a separate entry of the source.

Columns and labels:
NPM-ALK lymphoma cells [1] = test: i.v. lymphoma treated with single dose doxorubicin followed by DNA vaccination; assay type: in vivo, BALB/c mice
Description: FIG. 2. Efficacy of ALK vaccination in preventing disseminated lymphoma growth and in lymphoma therapy (a,b) Disseminated growth of NPM-ALK lymphoma cells injected in the tail vein in mock or ALK plasmid vaccinated BALB/c mice. (a) All mock vaccinated mice challenged i.v. 7 days after the second vaccination with 1×10^6 NPM-ALK lymphoma died of lymphoma outgrowth within 50 days after challenge while 70% of ALK vaccinated mice remained alive and well for all the observation period of 180 days. […] (c) Increasing amounts of NPM-ALK lymphoma cells were injected s.c. in BALB/c mice on day 0. Mice were then vaccinated as described above on days 1 and 8. Tumor growth was followed over time. Data are from one of two independent experiments with at least 7 mice for each group. * P<0.01. (d) BALB/c mice were i.v. injected with 1×10^6 NPM-ALK lymphoma cells on day 0. On day 7 mice received i.v. 10 mg/kg of doxorubicin (dashed arrow) followed on days 14, 21 and 28 by DNA vaccination with empty (mock) or ALK-expressing plasmids (full arrows). Mice were then followed up to 90 days. […] Tumor size was measured over time. […]
A single dose chemotherapy protocols was employed using doxorubicin (10 mg/kg) 7 day prior the i.v. injection of a challenging dose (1×10^6) of NPM-ALK positive lymphoma cells. […] Tumor growth and overall survival were determined, overtime.

NPM-ALK lymphoma cells [2] = test: in vitro survival of lymphoma cells with doxorubicin (TMRM staining, flow cytometry); assay type: cell-based, murine; conditions: 24 or 48 hours, increasing concentrations
Protocol: FIG. 6. NPM-ALK lymphoma cells are sensitive to doxorubicin. NPM-ALK lymphoma cells were incubated in vitro for 24 or 48 hours with increasing concentrations of doxorubicin. Percentages of alive cells were calculated by TMRM staining and flow cytometry analyses.
To mimic more strictly these clinical settings, the efficiency of the vaccination strategy disclosed herein in association with chemotherapy, which remains the standard therapeutic strategy for human Anaplastic Large Cell Lymphomas (ALCL), was tested.

[3] = system: NPM-ALK expressing lymphoma cells; test: s.c. challenge with NPM-ALK lymphoma cells after DNA vaccination; assay type: in vivo, BALB/c mice; conditions: vaccinated twice at a week interval; s.c. challenge one week after second vaccination
Protocol: FIG. 1. ALK vaccination prevents the growth of NPM-ALK positive lymphoma cells. (a,b) BALB/c mice were vaccinated on day 0 and 7 in both the tibial muscles with 40 μg of pDEST plasmid or with pDEST-ALK (ALK) plasmid coding for the full ALK tyrosine kinase intracytoplasmic domain (a) or with pDEST-ALKt (ALKt) coding for a truncated portion of ALK lacking the part of the tyrosine kinase domain (b). An additional group of mice was vaccinated with the pDEST-ALK or pDEST-ALKt plasmids combined with the same amount of a pcDNA3 plasmid coding for GM-CSF. […]
Mice were challenged subcutaneously in the right flank with 0.2 ml PBS of a single suspension containing 10^5 to 10^6 ALK-OVA and VAC lymphoid cells, as indicated in each experiment. The cages were coded, and the incidence and the growth of tumors were evaluated at the indicated times in a blind fashion. Neoplastic masses were measured with calipers in the two perpendicular diameters.
For DNA electroporation, 50 μg of pDEST empty vector or pDEST-ALK (ALK) vector in 20 μl of 0.9% NaCl with 6 mg/ml polyglutamate were injected on days 0 and 7 into both the tibial muscle of anesthetized BALB/c mice. […] Protection was evaluated as the percentage of lymphoma-free mice 21 days after challenge.

COc1cccc2c1C(=O)c1c(O)c3c(c(O)c1C2=O)C[C@@](O)(C(=O)CO)C[C@@H]3O[C@H]1C[C@H](N)[C@H](O)[C@H](C)O1 [doxorubicin]
cure rate (NPM-ALK lymphoma cells [1]; chemotherapy alone (single dose doxorubicin one week after 1×10^6 cells i.v.)): 60% | survival (NPM-ALK lymphoma cells [1]; chemotherapy alone versus untreated mice): prolonged their survival | sensitivity of lymphoma cells (apoptosis / alive cells) (NPM-ALK lymphoma cells [2]): sensitive; also recorded: rapid apoptosis with low doses

pDEST-ALK^K210R: pDEST plasmid encoding cytoplasmic portion of kinase dead mutant K210R of ALK (SEQ ID No.:3)
protection from localized lymphoma growth [3]: total protection

B1: pDEST-ALKt: pDEST plasmid with truncated form of ALK lacking part of the tyrosine kinase domain (SEQ ID No.: 2) (nucleic acid)
DNA: TGCTTTGCTGGCAAGACCTCCTCCATCAGTGACCTGAAGGAGGTGCCGCGGAAAAACATCACCCTCATTCGGGGTCTGGGCCATGGCGCCTTTGGGGAGGTGTATGAAGGCCAGGTGTCCGGAATGCCCAACGACCCAAGCCCCCTGCAAGTGGCTGTGAAGACGCTGCCTGAAGTGTGCTCTGAACAGGACGAACTGGATTTCCTCATGGAAGCCCTGATCATCAGCAAATTCAACCACCAGAACATTGTTCGCTGCATTGGGGTGAGCCTGCAATCCCTGCCCCGGTTCATCCTGCTGGAGCTCATGGCGGGGGGAGACCTCAAGTCCTTCCTCCGAGAGACCCGCCCTCGCCCGAGCCAGCCCTCCTCCCTGGCCATGCTGGACCTTCTGCACGTGGCTCGGGACATTGCCTGTGGCTGTCAGTATTTGGAGGAAAACCACTTCATCCACCGAGACATTGCTGCCAGAAACTGCCTCTTGACCTGTCCAGGCCCTGGAAGAGTGGCCAAGATTGGAGACTTCGGGATGGCCCGAGACATCTACAGGGCGAGCTACTATAGAAAGGGAGGCTGTGCCATGCTGCCAGTTAAGTGGATGCCCCCAGAGGCCTTCATGGAAGGAATATTCACTTCTAAAACAGACACATGGTCCTTTGGAGTGCTGCTATGGGAAATCTTTTCTCTTGGATATATGCCATACCCCAGCAAAAGCAACCAGGAAGTTCTGGAGTTTGTCACCAGTGGAGGCCGGATGGACCCACCCAAGAACTGCCCTGGGCCTGTATACCGGATAATGACTCAGTGCTGGCAACATCAGCCTGAAGACAGGCCCAACTTTGCCATCATTTTGGAGAGGATTGAATACTGCACCCAGGACCCGGATGTAATCAACACCGCTTTG
modifications: portion of cytoplasmic domain of ALK - human
protection from localized lymphoma growth [3]: total protection
